Test results published in US10519140B2, “Indolin-2-one derivatives” (Hoffmann-La Roche Inc., priority 2015, dated 2019).

How the values were obtained:
[1] = target: T1, mouse ENT-1 transporter (Mus musculus, UniProt Q9JIM1); test: Adenosine transport activity (ENT1, [3H]-adenosine uptake inhibition); format: cell-based; conditions: stable cells expressing mouse ENT-1; [2,8-3H]-adenosine 6 nM, 20 min
T1 construct: expressed in transfected cells
T1 sequence (Q9JIM1 1-460): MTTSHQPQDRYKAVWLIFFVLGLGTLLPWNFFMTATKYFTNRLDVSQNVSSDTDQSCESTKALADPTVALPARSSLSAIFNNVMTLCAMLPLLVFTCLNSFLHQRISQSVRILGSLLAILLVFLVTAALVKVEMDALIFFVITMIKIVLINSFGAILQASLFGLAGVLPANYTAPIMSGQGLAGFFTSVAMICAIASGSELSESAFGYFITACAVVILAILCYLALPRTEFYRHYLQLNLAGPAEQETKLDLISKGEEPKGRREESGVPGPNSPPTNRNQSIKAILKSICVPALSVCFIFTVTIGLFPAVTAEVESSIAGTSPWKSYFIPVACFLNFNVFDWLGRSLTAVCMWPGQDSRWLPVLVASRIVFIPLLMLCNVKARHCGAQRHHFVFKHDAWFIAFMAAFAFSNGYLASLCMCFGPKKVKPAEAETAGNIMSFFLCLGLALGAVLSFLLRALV
Method in brief: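 Stable mammalian cells expressing mouse ENT1 are seeded at 60,000 cells/well and washed into HEPES-Tris pH 7.4 uptake buffer. Compounds (1% DMSO) are added at RT, immediately followed by 6 nM [3H]-adenosine for 20 min. Cell-associated radioactivity is counted by scintillation after ice-cold washes, with nonspecific uptake defined by 10 μM NBTI.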

[2] = tested on: mice; test: SmartCube behavioral signature similarity analysis; format: in vivo; conditions: for discrimination rate vs Clozapine (1.0 mg/kg) / discrimination rate vs Olanzapine (0.25 mg/kg) / discrimination rate vs Risperidone (0.06 mg/kg): rate of 0.70 or lower = similar; for SmartCube behavioral signature class: i.p.
Text: In addition to the reversal of L-687,414 induced hyperlocomotion experiment as described above, some compounds of the present invention have been tested in SmartCube®, an automated system in which the behaviors of compound-treated mice in response to multiple challenges are captured by digital video and analyzed with computer algorithms (Roberds et al., Frontiers in Neuroscience, 2011, Vol. 5, Art. 103, 1-4; Vadim Alexandrov, Dani Brunner, Taleen Hanania, Emer Leahy Eur. J Pharmacol. 2015, 750, 82-99). In this way, the neuro-pharmacological effects of a test compound can be predicted by similarity to major classes of compounds, such as antipsychotics, anxiolytics and antidepressants. […] In addition to the above-mentioned experiments, it has been shown that some of the compounds of formula I are also ENT1 inhibitors (equilibrative nucleoside transporter 1 protein). Therapeutic potential of ENT1 inhibitors is directly or indirectly (via effects of adenosine and/or adenosine receptor modulation) described in the literature for the treatment of the following diseases: autoimmune disease (US 2006/253263), cancer (WO9857643), viral infections and fungal infections (WO2004060902), neurodegenerative disease, Parkinson's disease, Alzheimer's disease, Huntington's disease, amyotrophic lateral sclerosis, psychiatric diseases, substance abuse, ADHD, depression, epilepsy, anxiety, schizophrenia (WO0168105, EP 1252910, EP1612210, WO2009018275), autism spectrum disorders (Susan A. Masinoa, Masahito Kawamura Jr., Jessica L. Cotea, Rebecca B. Williams, David N. Ruskina, Neuropharmacology, 2013, 68, 116-121, pain (WO2009062990, WO2009064497), inflammation, asthma, (US 2007213296, Inflammation research, 2011, 60, 75-76), cardiovascular diseases (Trends in Pharmacological science, 2006, 27, 416-425), sleep disorders, (Psychopharmacology, 1987, 91, 434-439), and ophthalmology and inflammatory retinal diseases (World Journal of Diabetes, vol. 1, 12-18), epilepsy and neurodevelopmental disorders with co-morbid epilepsy (ENT1 Inhibition Attenuates Epileptic Seizure Severity Via Regulation of Glutamatergic Neurotransmission, Xu et al, Neuromol Med (2015) 17:1-11 and Epigenetic changes induced by adenosine augmentation therapy prevent epileptogenesis, Williams-Karneshy et al J Clin Invest. 2013 August; 123(8):3552-63.
As mentioned above, some compounds have been tested in SmartCube®, an analytical system developed by PsychoGenics Inc.
SmartCube® was used to compare the behavioral signature of a test compound to a database of behavioral signatures obtained from a large set of clinically approved reference drugs, grouped per indications. In this way, the neuro-pharmacological effects of a test compound can be predicted by similarity to major classes of compounds, such as antipsychotics, anxiolytics and antidepressants. This approach is ideally suited to screen collections of existing drugs or drug candidates with previously unknown neuropharmacology, which could expedite the development of new and unexpected treatments for psychiatric disorders.
Some compounds of the present invention were injected i.p. at different doses 15 minutes before the test. At least 8 mice were used in each treatment group. Digital videos of the subjects were processed with computer vision algorithms to extract over 2000 dependent measures including frequency and duration of many different behavioral states. The results of the classifications are presented as bar charts for each compound and dose (mg/kg), the Y-axis indicates the relative probability that the test compound will show efficacy in the specific CNS indication.
Compounds of the present invention show similar signatures to those of atypical antipsychotics. An independent analysis was performed on the unclassified data to determine the similarity of the example compounds to active doses of known atypical antipsychotics. […]

Row | Compound | IC50 [1] | discrimination rate vs Clozapine (1.0 mg/kg) ([2]; example at 3 mg/kg i.p.) | discrimination rate vs Olanzapine (0.25 mg/kg) ([2]; example at 3 mg/kg i.p.) | discrimination rate vs Risperidone (0.06 mg/kg) ([2]; example at 3 mg/kg i.p.) | SmartCube behavioral signature class [2] | discrimination rate vs Clozapine (1.0 mg/kg) ([2]; example at 5 mg/kg i.p.) | discrimination rate vs Olanzapine (0.25 mg/kg) ([2]; example at 5 mg/kg i.p.) | discrimination rate vs Risperidone (0.06 mg/kg) ([2]; example at 5 mg/kg i.p.)
1 | Cc1ncc(-c2ccc3c(c2)N(c2cnc(C)c(N4CCOCC4)n2)C(=O)C3(C)C)cn1 [Example 18, 3,3-Dimethyl-1-(5-methyl-6-morpholinopyrazin-2-yl)-6-(2-methylpyrimidin-5-yl)indolin-2-one] | 97 nM | 0.61 | 0.62 | 0.73 | similarity to atypical antipsychotics | – | – | –
2 | Cc1ncc(-c2ccc3c(c2)N(c2cnc4c(c2)C(C)(C)C(=O)N4C)C(=O)C3(C)C)cn1 [Example 54, 5-(3,3-Dimethyl-6-(2-methylpyrimidin-5-yl)-2-oxoindolin-1-yl)-1,3,3-trimethyl-1H-pyrrolo[2,3-b]pyridin-2(3H)-one] | 23.9 nM | 0.54 | 0.51 | 0.57 | similarity to atypical antipsychotics | – | – | –
3 | Cc1ncc(-c2ccc3c(c2)N(c2cncc(N4CCOC4=O)n2)C(=O)C3(C)C)cn1 [Example 15, 3-(6-(3,3-Dimethyl-6-(2-methylpyrimidin-5-yl)-2-oxoindolin-1-yl)pyrazin-2-yl)oxazolidin-2-one] | 26 nM | 0.57 | 0.56 | 0.59 | similarity to atypical antipsychotics | – | – | –
4 | Cc1ncc(-c2ccc3c(c2)N(c2cnc(C)c(N4CCOC4=O)n2)C(=O)C3(C)C)cn1 [Example 20, 3-(6-(3,3-Dimethyl-6-(2-methylpyrimidin-5-yl)-2-oxoindolin-1-yl)-3-methylpyrazin-2-yl)oxazolidin-2-one] | 16.5 nM | 0.53 | 0.51 | 0.57 | similarity to atypical antipsychotics | – | – | –
5 | Cc1ncc(-c2ccc3c(c2)N(c2cnc(-n4ccnc4C)cn2)C(=O)C3(C)C)cn1 [Example 50, 3,3-Dimethyl-1-(5-(2-methyl-1H-imidazol-1-yl)pyrazin-2-yl)-6-(2-methylpyrimidin-5-yl)indolin-2-one] | 31.1 nM | 0.52 | 0.51 | 0.63 | similarity to atypical antipsychotics | – | – | –

Continued by falling IC50 [1], values first:

Row | IC50 [1] | Compound | discrimination rate vs Clozapine (1.0 mg/kg) ([2]; example at 3 mg/kg i.p.) | discrimination rate vs Olanzapine (0.25 mg/kg) ([2]; example at 3 mg/kg i.p.) | discrimination rate vs Risperidone (0.06 mg/kg) ([2]; example at 3 mg/kg i.p.) | SmartCube behavioral signature class [2] | discrimination rate vs Clozapine (1.0 mg/kg) ([2]; example at 5 mg/kg i.p.) | discrimination rate vs Olanzapine (0.25 mg/kg) ([2]; example at 5 mg/kg i.p.) | discrimination rate vs Risperidone (0.06 mg/kg) ([2]; example at 5 mg/kg i.p.)
6 | 57 nM | Cc1ncc(-c2ccc3c(c2)N(c2cncc(N4CCCC4=O)n2)C(=O)C3(C)C)cn1 [Example 3, 3,3-Dimethyl-6-(2-methylpyrimidin-5-yl)-1-(6-(2-oxopyrrolidin-1-yl)pyrazin-2-yl)indolin-2-one] | – | – | – | similarity to atypical antipsychotics | 0.62 | 0.66 | 0.68
7 | 39 nM | Cc1ncc(-c2ccc3c(c2)N(c2cncc(N4CCOCC4)n2)C(=O)C3(C)C)cn1 [Example 1, 3,3-Dimethyl-6-(2-methylpyrimidin-5-yl)-1-(6-morpholinopyrazin-2-yl)indolin-2-one] | 0.56 | 0.59 | 0.83 | similarity to atypical antipsychotics | – | – | –
8 | 26.9 nM | Cc1ncc(-c2ccc3c(c2)N(c2ccc4c(n2)N(C)C(=O)C4(C)C)C(=O)C3(C)C)cn1 [Example 39, 6-(3,3-Dimethyl-6-(2-methylpyrimidin-5-yl)-2-oxoindolin-1-yl)-1,3,3-trimethyl-1H-pyrrolo[2,3-b]pyridin-2(3H)-one] | 0.59 | 0.58 | 0.62 | similarity to atypical antipsychotics | – | – | –
